Measured values as given in patent US12583818B2 (DAEGU-GYEONGBUK MEDICAL INNOVATION FOUNDATION, priority 2020, dated 2026).
Like-named read-outs stand apart in the source and are kept apart here.

Tests used:
[1] = tested on: A2780 cells (ovarian cancer cells); assay: Cell viability of A2780 cells (Cell-titer Glo); type: cell-based; settings: Homo sapiens
Procedure: (§1) In order to confirm the inhibitory effect of the compound represented by formula 1 according to the present invention on the growth of MCF7, MCF7-SP, A2780 or A2780-SP cells, the following experiment was performed, and the results are shown in Tables 4 and 5 below.
In addition, A2780 cells (ovarian cancer cells) were plated in a 96-well plate at the density of 3000 viable cells per well, and cultured in RPMI-1640 medium supplemented with 10% FBS and 1% penicillin/streptomycin.
(§2) On the next day of culture, the cells were treated with the compound of Examples 57, and 69 to 144, followed by culture for 3 days. Cell viability was evaluated by Cell-titer Glo (Promega, WC, USA), and luciferase activity was detected using a Tecan plate reader (Biocompare, USA).

[2] = molecular target: T1, Pin1 (Homo sapiens, UniProt Q13526); assay: Evaluation of Pin1 enzyme inhibitory activity (Sensolyte Green Pin1 assay kit); type: biochemical
T1 construct: purchased Anaspec
T1 sequence (Q13526 whole entry): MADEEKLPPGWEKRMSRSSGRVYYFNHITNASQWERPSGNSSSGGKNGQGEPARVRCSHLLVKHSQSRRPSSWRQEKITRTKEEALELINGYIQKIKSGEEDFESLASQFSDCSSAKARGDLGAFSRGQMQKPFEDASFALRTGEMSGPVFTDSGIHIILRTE
In short: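 Compounds were tested at four working concentrations (100, 10, 1, 0.1 μM), mixed with Pin1 (50 μg/ml stock dilution), developer and substrate (1 μM as prepared). Fluorescence at 490/520 nm was recorded after 2 h in the dark at room temperature. Results were grouped into grades A–D by inhibiting concentration.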

[3] = tested on: A2780-SP cells (ovarian cancer stem cells); assay: Sphere cell viability of A2780-SP cells (Cell-titer Glo); type: cell-based
Procedure: as §1
On the other hand, A2780-SP cells (ovarian cancer stem cells) were plated in an Ultra-Low Attachment round bottom 96-well plate (corning) at the density of 1,500 viable cells per well, and cultured in cancer stem cell medium. The cancer stem cell medium is composed of the neurobasal medium supplemented with 20 ng/ml of bFGF, 10 ng/ml of EGF, […] of amphotericin B, HEPES, Glutamax and B27.
as §2, with “for 8” for “for 3”, “days. The medium containing the compound was added thereto once again on the 4th day. Sphere cell” for “days. Cell”

[4] = 72 h, cell viability, culture for 3 days, read-out: A2780
[5] = Table 2, read-out: concentration at which Pin1 inhibitory activity was exhibited
[6] = concentration at which the Pin1 enzyme activity is inhibited, 2 hours at room temperature, fluorescence 490 nm/520 nm, read-out: Pin 1 inhibition
[7] = 192 h, sphere cell viability, culture for 8 days, read-out: A2780-SP
[8] = Table 5, read-out: the concentration (second list of b710, cell line not named; matches A2780-SP column)
[9] = A2780, Table 5, read-out: A2780 cell concentration

| SMILES | IC50 [1, 4] [nM] | IC50 [2, 5] [nM] | IC50 [2, 6] [nM] | IC50 [3, 7] [nM] | IC50 [3, 8] [nM] | IC50 [1, 9] [nM] |
| --- | --- | --- | --- | --- | --- | --- |
| O=S(=O)(NCCCc1c[nH]c2ccc(Cl)cc12)c1ccc(OCCCn2cncn2)cc1 [Example 160, 4-(3-(1H-1,2,4-triazol-1-yl)propoxy)-N-(3-(5-chloro-1H-indol-3-yl)propyl)benzenesulfonamide] | > 10000 | < 1000 | < 1000 | > 10000 |  |  |
| CN1CCN(c2cc(Oc3ccc(S(=O)(=O)NCCCc4c[nH]c5ccc(Cl)cc45)cc3)cc(N3CCN(C)CC3)c2)CC1 [Example 130, 4-(3,5-bis(4-methylpiperazine-1-yl)phenoxy)-N-(3-(5-chloro-1H-indole-3-yl)propyl)benzenesulfonamide] | 1000 to 10000 | < 1000 | < 1000 | 1000 to 10000 |  | < 10000 |
| O=S(=O)(NCCCc1c[nH]c2ccc(Cl)cc12)c1ccc(CCCCn2ccnc2)cc1 [Example 148] | > 10000 | < 1000 | < 1000 | 1000 to 10000 |  |  |
| CC(CCc1c[nH]c2ccc(Cl)cc12)NS(=O)(=O)c1ccc(OCCCN2CCNCC2)cc1 (stereo not drawn) [Example 152, N-(4-(5-chloro-1H-indol-3-yl)butan-2-yl)-4-(3-(piperazin-1-yl)propoxy)benzenesulfonamide] | > 10000 | < 1000 | < 1000 | < 1000 | < 1000 |  |
| O=S(=O)(NCCCc1c[nH]c2ccc(Cl)cc12)c1ccc(OCCCn2cnc(Cl)c2Cl)cc1 [Example 166, N-(3-(5-chloro-1H-indol-3-yl)propyl)-4-(3-(4,5-dichloro-1H-imidazol-1-yl)propoxy)benzenesulfonamide] | > 10000 | < 1000 | < 1000 | 1000 to 10000 |  |  |
| CS(=O)(=O)CCCOc1ccc(S(=O)(=O)NCCCc2c[nH]c3ccc(Cl)cc23)cc1 [Example 145, N-(3-(5-chloro-1H-indol-3-yl)propyl)-4-(3-(methylsulfonyl)propoxy)benzenesulfonamide] | > 10000 | < 1000 | < 1000 | > 10000 |  |  |
| Cc1[nH]c2ccc(Cl)cc2c1CCCNS(=O)(=O)c1ccc(OCCCN2CCN(C)CC2)cc1 [Example 147, N-(3-(5-chloro-2-methyl-1H-indole-3-yl)propyl)-4-(3-(4-methylpiperazine-1-yl)propoxy)benzenesulfonamide] | > 10000 | < 1000 | < 1000 | > 10000 |  |  |
| C[C@H]1CN(CCCOc2ccc(S(=O)(=O)NCCCc3c[nH]c4ccc(Cl)cc34)cc2)CCN1C [Example 111, (S)—N-(3-(5-chloro-1H-indol-3-yl)propyl)-4-(3-(3,4-dimethylpiperazin-1-yl)propoxy)benzenesulfonamide] | > 10000 |  | 1000 to 10000 | < 1000 | < 1000 |  |
| CN1CCN(CCCOc2ccc(S(=O)(=O)Nc3ccccc3Cc3c[nH]c4ccc(Cl)cc34)cc2)CC1 [Example 149, N-(2-((5-chloro-1H-indole-3-yl)methyl)phenyl)-4-(3-(4-methylpiperazine-1-yl)propoxy)benzenesulfonamide] | > 10000 | < 1000 | < 1000 | > 10000 |  |  |
| O=S(=O)(NCCCc1c[nH]c2ccc(Br)cc12)c1ccc(OCCCN2CCNCC2)cc1 [Example 153, N-(3-(5-bromo-1H-indole-3-yl)propyl)-4-(3-(piperazine-1-yl)propoxy)benzenesulfonamide] | 1000 to 10000 | < 1000 | < 1000 | < 1000 | < 1000 | < 10000 |
| O=S(=O)(NCCCc1c[nH]c2ccc(Cl)cc12)c1ccc(Nc2cc(N3CCNCC3)ccn2)cc1 [Example 134, N-(3-(5-chloro-1H-indol-3-yl)propyl)-4-((4-(piperazin-1-yl)pyridin-2-yl)amino)benzenesulfonamide] | > 10000 | < 1000 | < 1000 | < 1000 | < 1000 |  |
| O=S(=O)(Nc1ccccc1Cc1c[nH]c2ccc(Cl)cc12)c1ccc(OCCCN2CCNCC2)cc1 [Example 150, N-(2-((5-chloro-1H-indol-3-yl)methyl)phenyl)-4-(3-(piperazin-1-yl)propoxy)benzenesulfonamide] | > 10000 | < 1000 | < 1000 | < 1000 | < 1000 |  |
| Cc1nccn1CCCOc1ccc(S(=O)(=O)NCCCc2c[nH]c3ccc(Cl)cc23)cc1 [Example 161, N-(3-(5-chloro-1H-indol-3-yl)propyl)-4-(3-(2-methyl-1H-imidazol-1-yl)propoxy)benzenesulfonamide] | > 10000 | < 1000 | < 1000 | < 1000 | < 1000 |  |
| O=S(=O)(NCCCc1c[nH]c2ccc(Cl)cc12)c1ccc(OCCCN2CCCC2)cc1 [Example 100, N-(3-(5-chloro-1H-indol-3-yl)propyl)-4-(3-(pyrrolidin-1-yl)propoxy)benzenesulfonamide] | 1000 to 10000 | < 1000 | < 1000 | < 1000 | < 1000 | < 10000 |
| CC(CCc1c[nH]c2ccc(Cl)cc12)NS(=O)(=O)c1ccc(OCCCN2CCN(C)CC2)cc1 (stereo not drawn) [Example 151] | > 10000 | < 1000 | < 1000 | < 1000 | < 1000 |  |

More lines, now with the values ahead:

| IC50 [1, 4] [nM] | IC50 [2, 5] [nM] | IC50 [2, 6] [nM] | IC50 [3, 7] [nM] | IC50 [3, 8] [nM] | IC50 [1, 9] [nM] | SMILES |
| --- | --- | --- | --- | --- | --- | --- |
| > 10000 | < 1000 | < 1000 | < 1000 | < 1000 |  | O=S(=O)(NCCCc1n[nH]c2ccc(Cl)cc12)c1ccc(OCCCN2CCNCC2)cc1 [Example 168, N-(3-(5-chloro-1H-indazol-3-yl)propyl)-4-(3-(piperazin-1-yl)propoxy)benzenesulfonamide] |
| 1000 to 10000 | < 1000 | < 1000 | < 1000 | < 1000 | < 10000 | Cc1nc(C)n(CCCOc2ccc(S(=O)(=O)NCCCc3c[nH]c4ccc(Cl)cc34)cc2)c1C [Example 176, N-(3-(5-chloro-1H-indol-3-yl)propyl)-4-(3-(2,4,5-trimethyl-1H-imidazol-1-yl)propoxy)benzenesulfonamide] |
| > 10000 | < 1000 | < 1000 | < 1000 | < 1000 |  | CN1CCN(C[C@@H](O)COc2ccc(S(=O)(=O)NCCCc3c[nH]c4ccc(Cl)cc34)cc2)CC1 [Example 171, (R)—N-(3-(5-chloro-1H-indole-3-yl)propyl)-4-(2-hydroxy-3-(4-methylpiperazine-1-yl)propoxy)benzenesulfonamide] |
| > 10000 | < 1000 | < 1000 | < 1000 | < 1000 |  | O=S(=O)(NCC1CCc2[nH]c3ccc(F)cc3c2C1)c1ccc(OCCCN2CCNCC2)cc1 (stereo not drawn) [Example 188, N-((6-fluoro-2,3,4,9-tetrahydro-1H-carbazol-3-yl)methyl)-4-(3-(piperazin-1-yl)propoxy)benzenesulfonamide] |
| > 10000 | < 1000 | < 1000 | < 1000 | < 1000 |  | CN1CCN(CCCOc2ccc(S(=O)(=O)NCCCc3c[nH]c4cc(Cl)c(Cl)cc34)cc2)CC1 [Example 184, N-(3-(5,6-dichloro-1H-indol-3-yl)propyl)-4-(3-(4-methylpiperazin-1-yl)propoxy)benzenesulfonamide] |
| 1000 to 10000 | < 1000 | < 1000 | < 1000 | < 1000 | < 10000 | O=S(=O)(NCCCc1c[nH]c2ncc(Cl)cc12)c1ccc(OCCCN2CCNCC2)cc1 [Example 170, N-(3-(5-chloro-1H-pyrrolo[2,3-b]pyridin-3-yl)propyl)-4-(3-(piperazin-1-yl)propoxy)benzenesulfonamide] |
| > 10000 | < 1000 | < 1000 | > 10000 |  |  | O=S(=O)(NCCCc1c[nH]c2ccc(Cl)cc12)c1ccc(CCCOc2ccncc2)cc1 [Example 185, N-(3-(5-chloro-1H-indole-3-yl)propyl)-4-(3-(pyridine-4-yloxy)propyl)benzenesulfonamide] |
| > 10000 | < 1000 | < 1000 | < 1000 | < 1000 |  | O=S(=O)(NCCCc1c[nH]c2ccc(Cl)cc12)c1ccc(OC[C@H](O)CN2CCNCC2)cc1 [Example 172, (R)—N-(3-(5-chloro-1H-indol-3-yl)propyl)-4-(2-hydroxy-3-(piperazin-1-yl)propoxy)benzenesulfonamide] |
